Details: Liquid

CCOS(=O)(=O)[O-].CCn1cc[n+](C)c1 [1-ethyl-3-methylimidazolium ethyl sulfate]
mass density [kg/m3]
Details | 100 kPa | 2500 kPa | 5000 kPa | 10000 kPa | 15000 kPa | 20000 kPa | 25000 kPa | 30000 kPa | 35000 kPa
283.15 K | 1246.94 | 1247.9 | 1248.89 | 1250.85 | 1252.79 | 1254.73 | 1256.61 | 1258.47 | 1260.31
293.15 K | 1239.88 | 1240.89 | 1241.91 | 1243.9 | 1245.88 | 1247.83 | 1249.76 | 1251.66 | 1253.57
298.15 K | 1236.35 | 1237.35 | 1238.4 | 1240.44 | 1242.46 | 1244.44 | 1246.41 | 1248.35 | 1250.23
303.15 K | 1232.72 | 1233.78 | 1234.83 | 1237 | 1239.02 | 1241.03 | 1243.02 | 1244.98 | 1246.84
313.15 K | 1226.06 | 1227.11 | 1228.18 | 1230.3 | 1232.38 | 1234.45 | 1236.48 | 1238.47 | 1240.45
323.15 K | 1219.19 | 1220.23 | 1221.36 | 1223.53 | 1225.69 | 1227.8 | 1229.93 | 1231.96 | 1233.91
333.15 K | 1212.42 | 1213.53 | 1214.66 | 1216.87 | 1219.08 | 1221.24 | 1223.33 | 1225.42 | 1227.46

From the NIST ThermoML archive (doi:10.1016/j.jct.2007.11.011)
